Several values for one entry are separate records, joined by “and”; a condition that tells them apart may be missing. Equal entries are not always repeated.
Key:
[1] = test system: Total (β1+β2) β-ARs; assay: β-AR binding assay (ICYP saturation) on heart ventricle membranes after i.v. injection; format: in vivo, rat (SHR); details: cardiac ventricles of SHRs 4 days after treatment (1 mg/kg i.v.)
Experimental: (§1) Four days after intravenous injection of saline (n=6) or 1 mg/kg inverted ODN (n=6) or 2, 4, 10 or 18 days after injection of 1 mg/kg β1-AS-ODN (n=24), animals were euthanized, and membranes were prepared from heart ventricles as previously described (Baker and Pitha, 1982). For saturation experiments, 100 μg membrane protein was incubated in triplicate with 6 concentrations of [^125I](^−)-iodocyanopindolol (ICYP, NEN Life Science, 6.25 to 100 pmol/L) in a total volume of 250 μL containing 50 mmol/L Tris-HCl (pH 7.4), 5 mmol/L MgCl2 at 36° C. for 60 minutes. The nonspecific and β2-AR-binding levels were determined in the presence of 1 μmol/L (±)-alprenolol and 150 nmol/L CGP20712A (RBI), respectively. Then the reaction mixture was passed through Whatman (GF/B glass fiber filter using a Brandel harvester, and the bound radioactivity was counted for 1 min.
(§2) Four days after intravenous injection of saline (n=6) or 1 mg/kg inverted ODN (n=6), or 2, 4, 10, 18 days after injection of 1 mg/kg β1-AS-ODN (n=24), animals were sacrificed and membranes were prepared from heart ventricles as previously described (Baker and Pitha, 1982). For saturation studies, 100 μg membrane protein was incubated in triplicate with six concentrations of ^125I-(−)iodocyanopindolol (I-CYP, NEN Life Science, 6.25-100 pM) in a total volume of 250 μl containing 50 mM Tris-HCl (pH 7.4), 5 mM MgCl2 at 36° C. for 60 min. The nonspecific and β2-adrenoceptor binding levels were determined in the presence of 1 μM (±)-alprenolol and 150 nM CGP20712A (RBI), respectively. Then the reaction mixture was passed through Whatman GF/B glass fiber filter using Brandel harvester and the bound radioactivity was counted for one min.

[2] = target: T1, β1-ARs (Rattus norvegicus, UniProt P18090); assay: as above; format: in vivo, rat (SHR); details: for Bmax, β1: cardiac ventricles of SHRs 4 days after treatment (1 mg/kg i.v.)
T1 construct: membranes were prepared from heart ventricles as previously described; from tissue; host or cells: heart ventricles of SHR
T1 sequence (P18090 whole entry): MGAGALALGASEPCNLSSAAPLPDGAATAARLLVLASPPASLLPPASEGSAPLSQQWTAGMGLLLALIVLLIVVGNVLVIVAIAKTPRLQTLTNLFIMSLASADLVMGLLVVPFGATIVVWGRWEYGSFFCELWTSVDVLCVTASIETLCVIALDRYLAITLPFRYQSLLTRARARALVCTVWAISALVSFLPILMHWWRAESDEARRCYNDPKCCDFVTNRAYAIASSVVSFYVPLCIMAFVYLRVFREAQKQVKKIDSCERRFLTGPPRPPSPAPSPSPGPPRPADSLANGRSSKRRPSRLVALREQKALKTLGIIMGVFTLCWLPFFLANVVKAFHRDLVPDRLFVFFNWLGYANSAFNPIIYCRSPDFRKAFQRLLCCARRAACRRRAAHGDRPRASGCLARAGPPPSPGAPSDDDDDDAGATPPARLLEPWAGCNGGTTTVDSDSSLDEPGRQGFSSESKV
Experimental: as §1, §2

[3] = target: T2, β2-ARs (Rattus norvegicus, UniProt P10608); assay: as above; format: in vivo, rat (SHR); details: for Bmax, β2: cardiac ventricles of SHRs 4 days after treatment (1 mg/kg i.v.)
T2 construct: membranes were prepared from heart ventricles as previously described; from tissue; host or cells: heart ventricles of SHR
T2 sequence (P10608 whole entry): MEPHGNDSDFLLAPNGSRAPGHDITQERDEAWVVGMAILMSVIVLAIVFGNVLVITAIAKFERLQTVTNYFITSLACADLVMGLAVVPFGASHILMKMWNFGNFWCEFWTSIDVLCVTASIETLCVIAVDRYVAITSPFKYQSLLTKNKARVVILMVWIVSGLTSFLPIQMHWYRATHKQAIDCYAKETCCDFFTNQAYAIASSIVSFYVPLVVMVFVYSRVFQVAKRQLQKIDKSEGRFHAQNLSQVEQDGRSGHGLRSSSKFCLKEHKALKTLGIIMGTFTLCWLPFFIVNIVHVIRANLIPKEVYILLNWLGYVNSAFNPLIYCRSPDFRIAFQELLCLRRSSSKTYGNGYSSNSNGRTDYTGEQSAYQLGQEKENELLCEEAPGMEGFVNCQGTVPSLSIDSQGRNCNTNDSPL
Experimental: as §1, §2

[4] = test system: β1-AR; assay: β-adrenergic receptor binding assay on renal cortex membranes; format: in vivo, rat (SHR); details: for decrease in Bmax of β1-ARs in renal cortex: charge ratio 2
Experimental: Four days after intravenous injection of saline (n=6) or 0.5 mg/kg inverted ODN (n=6) or 4, 10, 18 and 40 days after injection of 0.5 mg/kg β1-AS-ODN (n=24), animals were euthanized, and membranes were prepared from the renal cortex of the left kidneys as previously described (Baker and Pitha, 1982). For saturation studies, 100 μg membrane protein was incubated in triplicate with 6 concentrations of [^125](−)iodocyanopindolol (ICYP, NEN Life Science, 6.25 to 100 pmol/L) in a total volume of 250 μL containing 50 mmol/L Tris-HCl (pH 7.4) and 5 mmol/L MgCl2 at 36° C. for 60 min. The nonspecific and β2-adrenergic receptor binding levels were determined in the presence of 1 μmol/L (±)-alprenolol and […] CGP20712A (RBI), respectively. Then the reaction mixture was passed through a Whatman GF/B glass fiber filter with a Brandel harvester, and the bound radioactivity was counted for 1 min.

[5] = test system: MDA (lipid peroxidation); assay: MDA levels in myocardium after ischemia-reperfusion; format: in vivo, Sprague-Dawley rats; details: pretreatment before ischemia-reperfusion; vs saline
Experimental: Malondialdehyde (MDA) levels in myocardium were measured in duplicate by a modification of the method of Ohkawa et al., (1979). Briefly, the ventricular tissues were homogenized. The assay mixture consisted of 0.1 ml of the tissue homogenate, 0.4 ml of 0.9% NaCl, 0.5 ml of 3% sodium dodecylsulfate, 3 ml of TBA (thiobarbituric acid reagent, containing equal parts of 0.8% aqueous thiobarbituric acid and acetic acid) and was heated for 75 min at 95° C. Thereafter, 1 ml cold 0.9% NaCl was added to the mixture, which was cooled and extracted with 5 ml n-butanol. After centrifugation at 3,000 rpm for 15 min, the butanol phase was assayed spectrophotometrically at 532 nm. Tetramethoxypropane (in amounts of 0, 0.1, 0.2, 0.4, 0.8, 1.0 nmole) served as external standard. MDA levels in myocardium were expressed in μmol/g tissue.

[6] = test system: β1-AR protein; assay: Western blot of β1-AR protein in myocardium; format: in vivo, Sprague-Dawley rats; details: Western analysis
Experimental: Myocardial tissues were homogenized and lysed in boiling lysis buffer (1% SDS, 0.1% Triton X-100®, and 10 mmol/L Tris-HCl, pH 7.4) and centrifuged at 10,000 RPM for 30 minutes at 4° C. The lysate protein from myocardial tissues (20 μg/lane) was separated by 8% SDS-PAGE using a Bio-Rad Mini-Protean cell, transferred to nitrocellulose membrane (Amersham). After incubation in blocking solution (4% non-fat milk, Sigma), membranes were incubated with 1:1000 dilation primary antibody (polycolonal antibody to β1-AR, Santa Cruz Biotechnology) for overnight at 4° C. Membranes were washed and incubated with 1:2000 dilution second antibody (Amersham) for one hr. The membranes were detected with the ECL system, as described previously (Yang et al, 1998; Li et al., 1999).

[7] = test system: β1-AR mRNA; assay: RT-PCR of β1-AR mRNA in myocardium; format: in vivo, Sprague-Dawley rats; details: adjusted for GAPDH
Experimental: Total RNA was isolated from rat myocardium with the single step acid-guanidinum thiocyanate-phenol-chloroform method and quantified (Chomcznski and Sacchi, 1987). One μg of total RNA was reverse transcribed with oligo-dT (Promega) and M-MLV reverse transcriptase (Promega) at 37° C. for one hr. 1.5 μl of RT material was amplified with Taq DNA polymerase (Promega) using a primer pair specific to β1-AR:
PCR™ product was 432 base pairs. For PCR, 35 cycles were used at 95° C. for one minute, 60° C. for one minute, and 72° C. for one min. The RT-PCR™ amplified samples were visualized on 1.8% agarose gels using ethidium bromide. A primer pair of rat GAPDH was used as control:
For PCR™, 35 cycles were used at 95° C. for one min, 60° C. for one min, 72° C. for one min. PCR™ product was 504 base pairs. Relative intensity of bands of interest were analyzed by NSF-300G Scanner (Microtek) (Yang et al., 1998; Li et al., 1999).

| Substance | Bmax, Total (β1+β2) [1] [fmol/mg] | effect on either β-AR subtype ([2]; SHR cardiac ventricles, 1 mg/kg i.v., 4 days) | Bmax, β1 [2] [fmol/mg] | Bmax, β2 [3] [fmol/mg] | effect on either β-AR subtype in renal cortex ([4]; 0.5 mg/kg i.v., 4 days) | increase in MDA levels in the myocardium [5] | ischemia-reperfusion-mediated increase in β1-AR protein expression [6] | increase of mRNA for β1-AR in myocardium [7] | β1/β2 subtype ratio in the ventricles ([2]; after treatment, from ≈70/30) | duration of significant reduction of β1-AR density in SHR hearts ([2]; single i.v. 1 mg/kg with cationic liposomes 1:2.5) [days] | drop in cardiac β1-AR density ([2]; single i.v. 1 mg/kg with cationic liposomes 1:2.5, day 10) [%] | drop in cardiac β1-AR density ([2]; single i.v. 1 mg/kg with cationic liposomes 1:2.5, day 18) [%] | change in Bmax of β2-ARs ([3]; SHR hearts, single i.v. 1 mg/kg) | affinity of either subtype in renal cortex ([4]; 0.5 mg/kg i.v.) | decrease in Bmax of β1-ARs in renal cortex ([4]; 0.5 mg/kg i.v., day 4) [%] | decrease in Bmax of β1-ARs in renal cortex ([4]; 0.5 mg/kg i.v., day 10) [%] | decrease in Bmax of β1-ARs in renal cortex ([4]; 0.5 mg/kg i.v., day 18) [%] | Bmax of β1-ARs in renal cortex ([4]; 0.5 mg/kg i.v., day 40) | duration of reduction of β1-AR levels in renal cortex ([4]; summary statement) [days] | reduction of β1-AR levels in renal cortex ([4]; summary statement) |
| --- | --- | --- | --- | --- | --- | --- | --- | --- | --- | --- | --- | --- | --- | --- | --- | --- | --- | --- | --- | --- |
| 5′-AGCCGTACCCGCGCC-3′ (phosphorothioate backbone, further chemistry not given here) [Inverted ODN, 15-mer inverted ODN control, reference compound] | 26.3 ± 3.0 | no effect | 18.1 ± 2.3 | 8.7 ± 0.5 | no effect | did not affect | no effect | not significantly affected |  |  |  |  |  |  |  |  |  |  |  |  |
| 5′-CCGCGCCCATGCCGA-3′ (phosphorothioate backbone, further chemistry not given here) [β1-AS-ODN, 15-mer antisense ODN targeted to the AUG start codon of rat β1-AR mRNA] | 19.8 ± 1.8 |  | 10.0 ± 1.2 | 9.9 ± 0.5 |  | attenuated the increase | abolished | attenuated the increase | ≈ 50/50 and 50/50 | 18 | 33 | 29 | no significant change | not affected | 35 | 29 | 23 | completely restored | 18 | ≈ 30% |

Source: patent US6489307B1, “Antisense compositions targeted to β1-adrenoceptor-specific mRNA and methods of use” (University of Florida, priority 1998, dated 2002)
